Source: PMC7298712 (mBio, 2020)

Molecular target: Risk1 (RT0135; rRisk1 WT) (Rickettsia typhi, UniProt Q68XM2)
Type: biochemical

Risk1 (RT0135; rRisk1 WT), sequence (Q68XM2 1-707): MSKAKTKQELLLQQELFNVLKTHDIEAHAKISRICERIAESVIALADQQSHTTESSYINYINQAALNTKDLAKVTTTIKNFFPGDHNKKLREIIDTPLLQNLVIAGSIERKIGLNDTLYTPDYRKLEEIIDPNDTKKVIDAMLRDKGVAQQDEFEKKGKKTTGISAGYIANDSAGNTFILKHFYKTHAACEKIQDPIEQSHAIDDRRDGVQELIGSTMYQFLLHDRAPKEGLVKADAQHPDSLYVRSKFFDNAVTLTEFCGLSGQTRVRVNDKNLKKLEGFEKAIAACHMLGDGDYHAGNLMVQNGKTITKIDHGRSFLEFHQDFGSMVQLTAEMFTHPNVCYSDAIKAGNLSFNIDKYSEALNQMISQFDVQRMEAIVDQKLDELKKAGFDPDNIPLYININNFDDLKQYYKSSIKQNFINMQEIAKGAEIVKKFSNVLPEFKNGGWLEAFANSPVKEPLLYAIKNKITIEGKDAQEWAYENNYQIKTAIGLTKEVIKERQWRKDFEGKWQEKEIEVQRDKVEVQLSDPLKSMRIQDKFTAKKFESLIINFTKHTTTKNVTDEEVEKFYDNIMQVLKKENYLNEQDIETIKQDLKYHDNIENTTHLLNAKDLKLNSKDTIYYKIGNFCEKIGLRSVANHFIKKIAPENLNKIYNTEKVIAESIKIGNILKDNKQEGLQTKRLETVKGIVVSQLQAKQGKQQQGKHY

SMILES: COC[C@H]1OC(=O)c2coc3c2[C@@]1(C)C1=C(C3=O)[C@@H]2CCC(=O)[C@@]2(C)C[C@H]1OC(C)=O [wortmannin]
- ADP-Glo in vitro kinase assay, inhibition: preincubation with wortmannin significantly inhibited, in a concentration-dependent manner
